Results from PMC11111955, “Safety and efficacy evaluation of halicin as an effective drug for inhibiting intestinal infections” (Frontiers in Pharmacology, 2024).
Values after ≈ are worked out from the molar mass of the structure shown. “Also recorded” adds a separate entry of the source. Like-named read-outs stand apart in the source and are kept apart here.

Columns and labels:
[1] = tested on: Klebsiella pneumoniae (ATCC 4352); test: Growth kinetics curve; assay type: cell-based; conditions: 1/2 × to 4 × MIC
mouse bone marrow cells = conditions: for Chromosome aberration (%) / Number of cells with chromosome aberration: ICR mice, oral; for Number of cells with chromosome aberration: of 5 × 100 cells at metaphase
ICR mice = test: Acute oral toxicity test in ICR mice
[2] = tested on: R. anatipestifer (ATCC 11845); test: Minimum inhibitory concentration (MIC); assay type: cell-based, Riemerella anatipestifer
B. subtilis (ATCC 66333) = test: Minimum inhibitory concentration (MIC); assay type: cell-based, Bacillus subtilis
Method: (§1) The test strains were inoculated on the corresponding solid medium and incubated overnight at 37°C. A single colony was picked from the medium and inoculated into Luria Broth (LB), and then incubated overnight at 37°C with shaking at 220 rpm. The bacterial suspension was diluted to 0.5 McFarland turbidity with Mueller Hinton broth (MHB), and then dilute 100 times for later use. Halicin was added to the 96-well plate, and diluted it to concentrations of 128, 64, 32, 16, 8, 4, 2, 1, 0.5, 0.25, 0.125, and 0 μg/mL by gradient. The 96-well plate was incubated at 37°C for 16 h, followed by observing and recording the results. The MIC was determined as the concentration at which there was no visible colony growth was observed.

E. coli (ATCC 25922) [3] = test: Minimum inhibitory concentration (MIC); assay type: cell-based, Escherichia coli
Method: as §1

E. coli (ATCC 25922) [4] = test: Multipassage resistance study (continuous induction); conditions: after multipassage induction
[5] = tested on: clinical isolates of E. coli strains; test: MIC against clinical isolates; assay type: cell-based, Escherichia coli
[6] = tested on: bone marrow polychromatic erythrocytes; test: Micronucleus experiment of mammalian bone marrow cells
[7] = tested on: Clostridium perfringens Type A; assay type: in vivo, BALB/c mice; conditions: for survival of infected mice: 1 h after C. perfringens challenge
TA97a = test: Ames test; assay type: cell-based, Salmonella typhimurium
Method: (§2) The experiments were performed in triplicate.

TA100 = test: Ames test; assay type: cell-based, Salmonella typhimurium
Method: as §2

[8] = tested on: P. aeruginosa (ATCC 27853); test: Minimum inhibitory concentration (MIC); assay type: cell-based, Pseudomonas aeruginosa
Method: as §1

[9] = tested on: A. baumannii (ATCC 19606); test: Minimum inhibitory concentration (MIC); assay type: cell-based, Acinetobacter baumannii
Method: as §1

[10] = tested on: Escherichia coli (ATCC 25922); test: Growth kinetics curve; assay type: cell-based
rats = test: 90-Day subchronic toxicity assay
S. flexneri (CMCC 51572) = test: Minimum inhibitory concentration (MIC); assay type: cell-based
Method: as §1

H. parasuis (ATCC 19417) = test: Minimum inhibitory concentration (MIC); assay type: cell-based
Method: as §1

Proteus (CMCC (B) 49027) = test: Minimum inhibitory concentration (MIC); assay type: cell-based
Method: as §1

[11] = tested on: Streptococcus suis (ATCC 43765); test: Minimum inhibitory concentration (MIC); assay type: cell-based
Method: as §1

[12] = Female mice, High-does (1009.1) mg/kg
[13] = Female mice, Low-does (252.3) mg/kg
[14] = Female mice, Medium-does (504.6) mg/kg
[15] = Male mice, High-does (1009.1) mg/kg
[16] = Male mice, Low-does (252.3) mg/kg
[17] = Male mice, Medium-does (504.6) mg/kg

Nc1nnc(Sc2ncc([N+](=O)[O-])s2)s1 [halicin]
growth in growth kinetics curve assay [1]: completely inhibited
teratogenic effect on bone marrow cells (mouse bone marrow cells; 252.3 mg/kg to 1009.1 mg/kg, p > 0.05 vs negative control): no significant teratogenic effect
Chromosome aberration (%) (mouse bone marrow cells; High-does (1009.1) mg/kg): 1.4 ± 0.55%
Number of cells with chromosome aberration (mouse bone marrow cells; High-does (1009.1) mg/kg): 7
Chromosome aberration (%) (mouse bone marrow cells; Low-does (252.3) mg/kg): 1.4 ± 1.14%
Number of cells with chromosome aberration (mouse bone marrow cells; Low-does (252.3) mg/kg): 7
Chromosome aberration (%) (mouse bone marrow cells; Medium-does (504.6) mg/kg): 1.6 ± 0.89%
Number of cells with chromosome aberration (mouse bone marrow cells; Medium-does (504.6) mg/kg): 8
mortality (ICR mice; 500 mg/kg oral): none died
survival rate at 7 days (ICR mice; 1,000 mg/kg oral): 80%
7-day survival rate (ICR mice; 4,000 mg/kg oral): 10%
LD50 (ICR mice; ICR mice, oral gavage, 7 days observation): 2018.3 mg/kg
acute toxicity classification (ICR mice; based on LD50): low-toxicity compound
MIC ([2]; R. anatipestife (ATCC 11845), second listing): 8 µg/mL (≈ 30.6 µM)
MIC ([2]; R. anatipestifer (ATCC 11845), first listing): 4 µg/mL (≈ 15.3 µM)
MIC (B. subtilis (ATCC 66333)): 128 µg/mL (≈ 490 µM)
MIC (E. coli (ATCC 25922) [3]): 8 µg/mL (≈ 30.6 µM)
MIC of ECR (E. coli ATCC 25922 resistant strains) (E. coli (ATCC 25922) [4]): 32 µg/mL
MIC [5]: 8 µg/mL (≈ 30.6 µM)
MIC ([5]; clinical isolate S015, Escherichia coli 1505): 16 µg/mL (≈ 61.2 µM)
MIC ([5]; clinical isolate S016, Escherichia coli 2101): 16 µg/mL (≈ 61.2 µM)
MIC ([5]; clinical isolate S017, Escherichia coli 1104): 16 µg/mL (≈ 61.2 µM)
MIC ([5]; clinical isolate S018, Escherichia coli 1103): 16 µg/mL (≈ 61.2 µM)
MIC ([5]; clinical isolate S019, Escherichia coli 1102): 16 µg/mL (≈ 61.2 µM)
MIC ([5]; clinical isolate S020, Escherichia coli 1204): 16 µg/mL (≈ 61.2 µM)
MIC ([5]; clinical isolate S021, Escherichia coli 1508): 16 µg/mL (≈ 61.2 µM)
MIC ([5]; clinical isolate S022, Escherichia coli 1302): 16 µg/mL (≈ 61.2 µM)
MIC ([5]; clinical isolate S023, Escherichia coli 1301): 16 µg/mL (≈ 61.2 µM)
MIC ([5]; clinical isolate S024, Escherichia coli 1213): 16 µg/mL (≈ 61.2 µM)
MIC ([5]; clinical isolate S025, Escherichia coli 1111): 8 µg/mL (≈ 30.6 µM)
MIC ([5]; clinical isolate S026, Escherichia coli 1123): 8 µg/mL (≈ 30.6 µM)
MIC ([5]; clinical isolate S034, Escherichia coli 1115): 8 µg/mL (≈ 30.6 µM)
MIC ([5]; clinical isolate S035, Escherichia coli 1114): 8 µg/mL (≈ 30.6 µM)
MIC ([5]; clinical isolate S036, Escherichia coli 1113): 8 µg/mL (≈ 30.6 µM)
MIC ([5]; clinical isolate S037, Escherichia coli 1110): 8 µg/mL (≈ 30.6 µM)
MIC ([5]; clinical isolate S038, Escherichia coli 1108): 8 µg/mL (≈ 30.6 µM)
MIC ([5]; clinical isolate S039, Escherichia coli 1105): 8 µg/mL (≈ 30.6 µM)
MIC ([5]; clinical isolate S040, Escherichia coli 230202): 8 µg/mL (≈ 30.6 µM)
MIC ([5]; clinical isolate S041, Escherichia coli 230203): 8 µg/mL (≈ 30.6 µM)
MIC ([5]; clinical isolate S042, Escherichia coli 230210): 8 µg/mL (≈ 30.6 µM)
MIC ([5]; clinical isolate S043, Escherichia coli 0807): 32 µg/mL (≈ 122 µM)
MIC ([5]; clinical isolate S044, Escherichia coli 1122): 4 µg/mL (≈ 15.3 µM)
MIC ([5]; clinical isolate S045, Escherichia coli 0906): 4 µg/mL (≈ 15.3 µM)
MIC ([5]; clinical isolate S046, Escherichia coli 0813): 4 µg/mL (≈ 15.3 µM)
MIC ([5]; clinical isolate S047, Escherichia coli 230209): 4 µg/mL (≈ 15.3 µM)
MIC ([5]; clinical isolate S048, Escherichia coli 230211): 4 µg/mL (≈ 15.3 µM)
PCE micronucleus (‰) [6, 12]: 2.2 ± 0.8 ‰
PCE/RBC [6, 12]: 0.72 ± 0.08
PCE micronucleus (‰) [6, 13]: 1.2 ± 0.4 ‰
PCE/RBC [6, 13]: 1.09 ± 0.06
PCE micronucleus (‰) [6, 14]: 0.8 ± 0.4 ‰
PCE/RBC [6, 14]: 1.06 ± 0.07
PCE micronucleus (‰) [6, 15]: 0.8 ± 0.8 ‰
PCE/RBC [6, 15]: 0.76 ± 0.03
PCE micronucleus (‰) [6, 16]: 0.6 ± 0.5 ‰
PCE/RBC [6, 16]: 1.07 ± 0.09
PCE micronucleus (‰) [6, 17]: 1 ± 0.7 ‰
PCE/RBC [6, 17]: 1.08 ± 0.11
micronucleus ratio compared with the negative control group ([6]; high-dose (1009.1 mg/kg), p < 0.01): significant difference
micronucleus ratio compared with the negative control group ([6]; medium (504.6 mg/kg) and low-dose (252.3 mg/kg), p > 0.05): no significant difference
survival of infected mice ([7]; 5 mg/kg halicin): more than 80%
survival of infected mice ([7]; 10 mg/kg halicin): no deaths occurred; also recorded: All mice in the 10 mg/kg halicin group survived
therapeutic effect in infected mice ([7]; dose of 5 mg/kg): good therapeutic effects
efficacy compared with 10 mg/kg metronidazole ([7]; intestinal anaerobic bacteria infection in mice): much more effective
Ames test bacterial counts (TA97a; +S9, 5.6 μg/plate): 145 ± 5.7
Ames test bacterial counts (TA97a; +S9, 11.2 μg/plate): 151 ± 11.3
Ames test bacterial counts (TA97a; +S9, 22.5 μg/plate): 31 ± 8.5
Ames test bacterial counts (TA97a; +S9, 45 μg/plate): 0 ± 0
Ames test bacterial counts (TA97a; -S9, 5.6 μg/plate): 82 ± 14.1
Ames test bacterial counts (TA97a; -S9, 11.2 μg/plate): 115 ± 8.5
Ames test bacterial counts (TA97a; -S9, 22.5 μg/plate): 0 ± 0
Ames test bacterial counts (TA97a; -S9, 45 μg/plate): 0 ± 0
Ames test bacterial counts (TA100; TA100, +S9, 5.6 μg/plate): 171 ± 11.3
Ames test bacterial counts (TA100; TA100, +S9, 11.2 μg/plate): 152 ± 12.7
Ames test bacterial counts (TA100; TA100, +S9, 22.5 μg/plate): 0 ± 0
Ames test bacterial counts (TA100; TA100, +S9, 45 μg/plate): 0 ± 0
Ames test bacterial counts (TA100; TA100, -S9, 5.6 μg/plate): 121 ± 9.9
Ames test bacterial counts (TA100; TA100, -S9, 11.2 μg/plate): 0 ± 0
Ames test bacterial counts (TA100; TA100, -S9, 22.5 μg/plate): 0 ± 0
Ames test bacterial counts (TA100; TA100, -S9, 45 μg/plate): 0 ± 0
MIC [8]: 64 µg/mL (≈ 245 µM)
MIC [9]: 8 µg/mL (≈ 30.6 µM)
growth in growth kinetics curve assay ([10]; 1/2 × MIC, E. coli (ATCC 25922)): significantly inhibited during the initial 16 h
growth in growth kinetics curve assay ([10]; 4 × MIC, after 20 h): still proliferated significantly
water consumption and mental states (rats; all dosage groups): no significant changes
body weight of female rats compared with the control group (rats; all halicin treatment groups, 90 days, p > 0.05): no significant difference
mortality (rats; any experimental group (50.5-201.8 mg/kg), 90 days): No mortality
weight of organs compared with the control group (rats; end of the experiment, all treatment groups, p > 0.05): no significant difference
maximum safe concentration (rats; from the safety assessment): 50.5 mg/kg
kidney findings (autopsy, HE sections) (rats; high dose 201.8 mg/kg, 201.8 mg/kg): slight renal inflammation; also recorded: kidney lesions
body weight of male rats compared with the control group (rats; high-dose group (201.8 mg/kg), oral, 90 days, p < 0.05): significantly lower
serum ALT and AST levels compared with the control group (rats; high-dose, p < 0.01): significantly reduced
diet compared with the control group (rats; low-dose group (50.5 mg/kg), p > 0.05): No significant differences
dosages with good safety and tolerability (rats; rats, oral, 90 days): below 50.5 mg/kg
MIC (S. flexneri (CMCC 51572)): 8 µg/mL (≈ 30.6 µM)
MIC (H. parasuis (ATCC 19417)): 8 µg/mL (≈ 30.6 µM)
MIC (Proteus (CMCC (B) 49027)): 8 µg/mL (≈ 30.6 µM)
MIC [11]: 4 µg/mL (≈ 15.3 µM)
